Measurements published in US5985834A, “Nova- and decapeptides in the preparation of a drug for the treatment of aids” (ASTA Medica AG, priority 1993, dated 1999).
pEC50: −log10 of the molar value.

Tested on: HIV virus
Test: Screening method for anti-HIV activity (NCI AIDS screening trial, XTT formazan, protection of virus-infected T4 lymphocytes)
Type: cell-based
Details: Human immunodeficiency virus 1, CCRF-CEM, infected culture treated, CEM cells, 6-7 days
Procedure: Description of the Screening Method for Anti-HIV Activity
The process is suitable for locating active substances which are effective in all phases of the virus proliferation cycle. The test principle is based on the destruction of the T4 lymphocytes by the HIV virus.
Small amounts of HIV virus are added to the cell cultures. At least two complete viral reproduction cycles are needed to destroy the T4 lymphocytes and to be able to evaluate the results.
Active substances that react with virions (virus-like particles), cells or with products of the viral genes in order to interact with viral activities and thus block proliferation of the viruses will protect the cells from destruction and lysis.
The test system is automated to permit examination of a large number of cells infected with viruses. Compounds which degenerate, denaturise or that are rapidly metabolised cannot, however, be reliably discovered using the test procedure.
AZT (azidothymidine) and DDC serve as positive controls for the test.
1. T4 lymphocytes (CEM cell line) are mixed with virus in the ratio of virus:cell of ca. 1:0.05 in microtiter plates.
2. […]
5. The individual cell cultures are analysed spectrophotometrically and examined microscopically to detect surviving cells in order to confirm the protective effect. […]
7. The activity of the tested compound is determined. […]

Work on `Cc1cn([C@H]2C[C@H](N=[N+]=[N-])[C@@H](CO)O2)c(=O)[nH]c1=O` [AZT, 3'-azido-3'-desoxythymidine] yielded a pEC50 of 8.51.
